Data published in patent US20250282742A1, “BENZOFURAN DERIVATIVES FOR TARGETING AUTOPHAGY” (Automera PTE. LTD, priority 2024, published 2025).

Columns and labels:
Recombinant p62 protein = molecular target: T1, Recombinant p62 protein (Homo sapiens, UniProt Q13501); experiment: Surface plasmon resonance (SPR) compound binding to immobilised p62; details: recombinant p62, 15° C
T1 construct: Recombinant p62 protein was buffer exchanged into Biacore SPR running buffer
Protocol: Example 28: Surface Plasmon Resonance (SPR) Analysis
Recombinant p62 protein was buffer exchanged into Biacore SPR running buffer (Cytiva 100671) using the Slide-A-Lyzer Mini Dialysis system 7K MWCO (Thermo Fisher Scientific, Cat no. 69560). The final protein concentration was determined using the Nanodrop One spectrophotometer (Thermo Fisher Scientific, cat no. ND-ONE-W), with calibration for the dialysis buffer.
The prepared protein was diluted in sodium acetate buffer (NaAc, pH 5.5, Cytiva) to concentrations ranging from approximately 0.25-40 μg/mL. Post-immobilization, the protein required approximately 16 hours of equilibration in running buffer supplemented with 1% DMSO at 15° C. to ensure adequate surface equilibration and protein reorganization.
All SPR experiments were conducted at a constant temperature of 15° C. The SPR chip surface was activated using EDC/NHS for a contact time of 6-10 min at a flow rate of 10 μL/min. This was followed by protein immobilization for 2100 seconds and ethanolamine capping for 420 seconds, both at the same flow rate. Immediately after immobilization, the NH2—REEE peptide was analyzed in Single Cycle Kinetics mode (SCK) to verify surface activity, ensuring it binds the sample with the published affinity (−20 μM by SPR).
For general compound binding studies, experiments were performed at 15° C. using a running buffer composed of 10 mM HEPES, 150 mM NaCl, 1 mM DTT, 0.05% Tween 20, and 1% DMSO at pH 7.4. The test compound was initially prepared at a 20 mM concentration in DMSO and subsequently titrated in 2-fold dilutions. For each assay, 2 μL of the compound was mixed with 198 μL of the running buffer, and the mixture was thoroughly pipetted approximately 15 times for homogenization.
A series of blank injections (0 μM concentration) were included for double referencing, with at least 8 or 16 per plate depending on the format. Typical injection parameters were 120 seconds for association and 180 seconds for dissociation at a flow rate of […]. A four-point solvent correction was prepared with DMSO concentrations ranging from 2% to 0.5% in the buffer. Post each compound injection, the system's needles were washed with 50% DMSO.
Analysis of the SPR data was conducted using the Cytiva Evaluation software. The binding levels at the late time-point of each interaction were corrected for reference, then normalized to percentage bound values to account for variations in immobilization levels, protein molecular weight, and compound molecular weight.
Compound binding studies were carried out according to experimental procedures above and SPR % occupancy was determined and summarized in Table 7.

[1] = test system: p62 oligomers in HeLa cells; experiment: p62 oligomerization assay (Western blot, 24 h treatment); format: cell-based; details: fold change of p62 oligomer levels relative to DMSO control
Protocol: (§1) HeLa cells were seeded in 6-well plates (700,000 cells) and allowed to adhere overnight. Media was replaced one hour before administering either vehicle (DMSO) or test compounds. After 24 hours of treatment, the media was discarded, and cells were rinsed once with ice-cold 1×PBS before detached from plates with ice-cold RIPA Lysis and Extraction Buffer (Thermo Fisher Scientific) which was supplemented with protease and phosphatase inhibitors. The resulting cell suspensions were transferred to pre-chilled microcentrifuge tubes, incubated on ice for 20 min with intermittent mixing and then centrifuged at 12,000 rpm for 20 min at 4° C. The supernatants were then aspirated slowly and transferred into new tubes kept on ice. The protein concentration in the samples was determined using BCA kit (Thermo Fisher Scientific) as per manufacturer's instructions.
(§2) For the p62 oligomerization and LC3 lipidation assays, cell lysates were prepared using RIPA buffer supplemented with 2% SDS and benzonase (Sigma). The lysates were then combined with 4× Laemmli protein sample buffer (Bio-Rad), heated at 70° C. for 10 min and subjected to a brief centrifugation of 10-15 seconds.
(§3) For p62 oligomerization and LC3 lipidation assays, lysates containing 30 μg of protein and for BRD4 and FKBP12(F36V) degradation assays, lysates containing 20 μg of protein, were loaded slowly into the wells of 4-20% gradient Tris-glycine gels (Bio-Rad). The gels were run at 100V until completion and transferred onto PVDF membranes. Membranes were blocked using 5% milk in TBS-Tween (0.1%) buffer at room temperature for 1 hour. The membranes were incubated with primary antibody in 5% milk-TBST with shaking, overnight at 4° C. The primary antibodies used were: p62 (Novus Biologicals 2C11, H00008878-MO1), LC3A/B (Cell Signalling Technology D3U4C, 12741S), FKBP12 (Abcam ab24373), BRD4 (Cell Signalling Technology E2A7X, 13440S), GAPDH (Cell Signalling Technology D4C6R, 97166S), and β-Actin (Proteintech 66009-1-Ig). Following primary antibody incubation, membranes were washed thrice with TBST 10 min before and after incubation with secondary-HRP conjugated antibody in 5% milk-TBST for 1 hour at room temperature. The secondary antibodies used were: Anti-Mouse IgG HRP Conjugate (Promega W4021B) and Anti-Rabbit IgG HRP Conjugate (Promega W4011B). For the p62 oligomerization assay, the total protein levels were assessed using Ponceau staining (Thermo Fisher Scientific) of PVDF membrane as per recommendation by manufacturer's guidelines.
(§4) Imaging was acquired using SuperSignal™ West Pico PLUS Chemiluminescent Substrate (Thermo Fisher Scientific) with iBright Invitrogen FL100 imaging system. Band signal intensity, reflective of protein concentrations, were quantified using Invitrogen™ iBright™ Analysis and Image J software.
HeLa cells were treated with compounds for 24 hours to evaluate the effect of these compounds on p62 oligomerisation activity. The resulting changes in levels of p62 oligomers were assessed by Western blotting, as described in experimental procedures. The fold change of p62 oligomer levels induced by compound treatment relative to vehicle control (DMSO) was determined and summarized in Table 8. Specifically, FIGS. 2A-C show Western blot images and their corresponding quantification showing the levels of high molecular weight (100-200 kDa) p62 oligomers by 24 hours compound treatments at listed concentrations, relative to vehicle control (DMSO) in HeLa cells. Protein loading consistencies was assessed by Ponceau staining (not shown).

[2] = test system: LC3 protein (LC3-II/LC3-I) in HeLa cells; experiment: LC3 lipidation assay (LC3-II/LC3-I, Western blot, 24 h treatment); format: cell-based; details: fold change in LC3-II/LC3-I relative to DMSO control
Protocol: as §1, §2, §3, §4
HeLa cells were treated with compounds for 24 hours to evaluate the effect of these compounds on LC3-II/LC3-I levels, a measure of autophagy activation. The changes in levels of LC3-I, LC3-II and β-Actin (loading control) were assessed by Western blotting, as described in experimental procedures. The fold increase of LC3-II/LC3-I levels induced by compound treatment relative to vehicle control (DMSO) was determined and summarized in Table 9. Specifically, FIGS. 3A-C show Western blot images and their corresponding quantification showing the lipidation levels of LC3 protein (LC3-II/LC3-I) by 24 hours compound treatments at listed concentrations, relative to vehicle control (DMSO) in HeLa cells.

BRD4 in HeLa cells = molecular target: T2, BRD4 in HeLa cells (Homo sapiens, UniProt O60885); experiment: BRD4 degradation assay (Western blot, 24 h treatment); format: cell-based; details: doses up to 10 μM
T2 construct: endogenous in cells; host or cells: HeLa
Protocol: as §1
For the BRD4 degradation assay, cell lysates were prepared with RIPA buffer containing 0.25% SDS. These were mixed with 4× Laemmli protein sample buffer (Bio-Rad) supplemented with beta-mercaptoethaol (355 mM). The lysates were then heated at 95° C. for 5 min, and briefly centrifuged for 10-15 seconds.
For p62 oligomerization and LC3 lipidation assays, lysates containing 30 μg of protein and for BRD4 and FKBP12(F36V) degradation assays, lysates containing 20 μg of protein, were loaded slowly into the wells of 4-20% gradient Tris-glycine gels (Bio-Rad). The gels were run at 100V until completion and transferred onto PVDF membranes. Membranes were blocked using 5% milk in TBS-Tween (0.1%) buffer at room temperature for 1 hour. The membranes were incubated with primary antibody in 5% milk-TBST with shaking, overnight at 4° C. […] For the p62 oligomerization assay, the total protein levels were assessed using Ponceau staining (Thermo Fisher Scientific) of PVDF membrane as per recommendation by manufacturer's guidelines.
as §4
To evaluate levels of protein degradation by compounds 100-103, HeLa cells were treated with the corresponding compounds at doses up to 10 μM for 24 hours. The changes in levels of BRD4 and GAPDH (loading control) were assessed by Western blotting, as described in experimental procedures. Results are summarized in Table 11 below, measured by percentage change in BRD4 levels by compound treatment relative to vehicle (DMSO) control.

T1 sequence (Q13501 whole entry, species assumed): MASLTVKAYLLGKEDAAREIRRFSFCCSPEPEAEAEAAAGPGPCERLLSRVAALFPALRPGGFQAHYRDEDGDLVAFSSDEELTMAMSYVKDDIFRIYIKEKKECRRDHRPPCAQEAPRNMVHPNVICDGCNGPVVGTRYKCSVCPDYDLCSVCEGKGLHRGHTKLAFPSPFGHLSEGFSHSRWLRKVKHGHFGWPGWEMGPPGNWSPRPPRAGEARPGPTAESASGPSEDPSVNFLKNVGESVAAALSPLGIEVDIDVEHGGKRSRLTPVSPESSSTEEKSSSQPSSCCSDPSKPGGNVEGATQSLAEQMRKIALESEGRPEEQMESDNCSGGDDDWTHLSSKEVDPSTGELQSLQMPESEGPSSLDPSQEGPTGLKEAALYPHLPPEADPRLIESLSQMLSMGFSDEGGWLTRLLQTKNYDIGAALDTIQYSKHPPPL

With `OCCNCc1ccc2cc(CCc3ccccc3)oc2c1` [compound 3] the receptor occupancy at 100 µM (Recombinant p62 protein) was 30 to 70%, the p62 oligomerization [1] was “++ (> 2-fold change relative to DMSO control)” and the LC3 lipidation [2] was “++ (> 2-fold change in LC3-II/LC3-I relative to DMSO control)”.
For `OCCNCc1cc(F)c2cc(Cc3ccccc3)oc2c1` [compound 37], the receptor occupancy at 100 µM (Recombinant p62 protein) was 30 to 70%, the p62 oligomerization [1] was “++ (> 2-fold change relative to DMSO control)” and the LC3 lipidation [2] was “++ (> 2-fold change in LC3-II/LC3-I relative to DMSO control)”.
With `CC(O)CNCc1ccc2cc(Cc3ccccc3)oc2c1` (stereo not shown) [compound 5] the receptor occupancy at 100 µM (Recombinant p62 protein) was 30 to 70%, the p62 oligomerization [1] was “+ (< 2-fold change relative to DMSO control)” and the LC3 lipidation [2] was “+ (< 2-fold change in LC3-II/LC3-I relative to DMSO control)”.
`O=C(Nc1ccccc1)c1cc2ccc(CNCCO)cc2o1` [compound 35] was tested, and the receptor occupancy at 100 µM (Recombinant p62 protein) was 30 to 70%, the p62 oligomerization [1] was “+ (< 2-fold change relative to DMSO control)” and the LC3 lipidation [2] was “+ (< 2-fold change in LC3-II/LC3-I relative to DMSO control)”.
For `OCCNCc1ccc2c(Cc3ccccc3)coc2c1` [Compound 43, 2-(((3-benzylbenzofuran-6-yl)methyl)amino)ethan-1-ol], the receptor occupancy at 100 µM (Recombinant p62 protein) was 30 to 70%, the p62 oligomerization [1] was “+ (< 2-fold change relative to DMSO control)” and the LC3 lipidation [2] was “++ (> 2-fold change in LC3-II/LC3-I relative to DMSO control)”.
With `COc1ccc(Cc2cc3ccc(CNCCO)cc3o2)cc1` [compound 17] the receptor occupancy at 100 µM (Recombinant p62 protein) was 30 to 70%, the p62 oligomerization [1] was “+ (< 2-fold change relative to DMSO control)” and the LC3 lipidation [2] was “+ (< 2-fold change in LC3-II/LC3-I relative to DMSO control)”.
With `OC1CC(NCc2ccc3cc(Cc4ccccc4)oc3c2)C1` (stereo not shown) [compound 10] the receptor occupancy at 100 µM (Recombinant p62 protein) was 30 to 70%, the p62 oligomerization [1] was “++ (> 2-fold change relative to DMSO control)” and the LC3 lipidation [2] was “+ (< 2-fold change in LC3-II/LC3-I relative to DMSO control)”.
With `Cc1sc2c(c1C)C(c1ccc(Cl)cc1)=N[C@@H](CC(=O)NCCOCCOCCNCc1ccc3cc(Cc4ccccc4)oc3c1)c1nnc(C)n1-2` [compound 103] the “Degradation (change in BRD4 levels relative to DMSO control)” value (BRD4 in HeLa cells) was “++ (> 2-fold change in BRD4 levels relative to DMSO control)”.
For `Cc1sc2c(c1C)C(c1ccc(Cl)cc1)=N[C@@H](CC(=O)NCCOCCOCCOCCNCc1ccc3cc(Cc4ccccc4)oc3c1)c1nnc(C)n1-2` [compound 100, (S)-N-(1-(2-benzylbenzofuran-6-yl)-5,8,11-trioxa-2-azatridecan-13-yl)-2-(4-(4-chlorophenyl)-2,3,9-trimethyl-6H-thieno[3,2-f][1,2,4]triazolo[4,3-a][1,4]diazepin-6-yl)acetamide], the “Degradation (change in BRD4 levels relative to DMSO control)” value (BRD4 in HeLa cells) was “++ (> 2-fold change in BRD4 levels relative to DMSO control)”.
With `OCCNCc1ccc2cc(CNC3CCCC(O)C3)oc2c1` (stereo not shown) [Compound 33, 3-(((6-(((2-hydroxyethyl)amino)methyl)benzofuran-2-yl)methyl)amino)cyclohexan-1-ol] the receptor occupancy at 100 µM (Recombinant p62 protein) was 30 to 70%, the p62 oligomerization [1] was “+ (< 2-fold change relative to DMSO control)” and the LC3 lipidation [2] was “+ (< 2-fold change in LC3-II/LC3-I relative to DMSO control)”.
With `CC(C)NCC(O)COc1ccc2cc(Cc3ccccc3)oc2c1` (stereo not shown) [Compound 9, 1-((2-benzylbenzofuran-6-yl)oxy)-3-(isopropylamino)propan-2-ol] the receptor occupancy at 100 µM (Recombinant p62 protein) was > 70%, the p62 oligomerization [1] was “+ (< 2-fold change relative to DMSO control)” and the LC3 lipidation [2] was “++ (> 2-fold change in LC3-II/LC3-I relative to DMSO control)”.
With `OCCNCc1ccc2cc(Cc3cccc(Cl)c3)oc2c1` [compound 15] the receptor occupancy at 100 µM (Recombinant p62 protein) was > 70%, the p62 oligomerization [1] was “++ (> 2-fold change relative to DMSO control)” and the LC3 lipidation [2] was “+ (< 2-fold change in LC3-II/LC3-I relative to DMSO control)”.
For `Cc1sc2c(c1C)C(c1ccc(Cl)cc1)=N[C@@H](CC(=O)NCCOCCOCCOCCNCc1ccc3cc(CCc4ccccc4)oc3c1)c1nnc(C)n1-2` [compound 101], the “Degradation (change in BRD4 levels relative to DMSO control)” value (BRD4 in HeLa cells) was “++ (> 2-fold change in BRD4 levels relative to DMSO control)”.
In the case of `Cc1sc2c(c1C)C(c1ccc(Cl)cc1)=N[C@@H](CC(=O)NCCOCCNCc1ccc3cc(Cc4ccccc4)oc3c1)c1nnc(C)n1-2` [compound 102], the “Degradation (change in BRD4 levels relative to DMSO control)” value (BRD4 in HeLa cells) is reported as “+ (< 2-fold change in BRD4 levels relative to DMSO control)”.
`CNCCOCc1ccc2cc(Cc3ccccc3)oc2c1` [compound 8] was tested, and the receptor occupancy at 100 µM (Recombinant p62 protein) was 30 to 70%, the p62 oligomerization [1] was “++ (> 2-fold change relative to DMSO control)” and the LC3 lipidation [2] was “+ (< 2-fold change in LC3-II/LC3-I relative to DMSO control)”.
For `CC(C)NCCOCc1ccc2cc(Cc3ccccc3)oc2c1` [Compound 7, N-(2-((2-benzylbenzofuran-6-yl)methoxy)ethyl)propan-2-amine], the receptor occupancy at 100 µM (Recombinant p62 protein) was 30 to 70%, the p62 oligomerization [1] was “++ (> 2-fold change relative to DMSO control)” and the LC3 lipidation [2] was “++ (> 2-fold change in LC3-II/LC3-I relative to DMSO control)”.
